Experiments:
PTP1B1–400 = biological target: T1, PTP1B1–400 (Homo sapiens, UniProt P18031); assay: Enzyme kinetic assay for PTP1B1–400 (pNPP substrate); type: biochemical
T1 construct: we performed an enzyme kinetic assay for PTP1B1–400
T1 sequence (P18031 1-400): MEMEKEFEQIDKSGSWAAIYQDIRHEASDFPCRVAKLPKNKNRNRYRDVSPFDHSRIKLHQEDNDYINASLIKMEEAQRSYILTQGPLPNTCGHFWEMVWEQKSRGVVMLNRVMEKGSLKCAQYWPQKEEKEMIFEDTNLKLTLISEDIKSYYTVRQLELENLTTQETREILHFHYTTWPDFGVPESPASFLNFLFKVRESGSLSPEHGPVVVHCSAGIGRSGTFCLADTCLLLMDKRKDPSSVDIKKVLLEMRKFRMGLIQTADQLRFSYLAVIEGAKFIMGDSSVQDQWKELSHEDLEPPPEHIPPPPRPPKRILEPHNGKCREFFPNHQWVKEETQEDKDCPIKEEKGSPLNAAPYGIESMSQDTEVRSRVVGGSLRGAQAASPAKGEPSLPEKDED
Description: As pointed out in this paper’s introduction, we have reported the PTP1B inhibitory activity of FC-114 and FC-122 [53]. […] Nevertheless, the inhibition type of FC-122 remained unknown to date. Therefore, we performed an enzyme kinetic assay for PTP1B1–400 [59, 60, 61] using p-nitrophenyl phosphate (pNPP) as substrate at different concentrations as well as the inhibitor. Figure 2C depicts the double reciprocal plot of Lineweaver-Burk, showing the effect of FC-122 on the PTP1B activity.
The kinetic studies for PTP1B and α-glucosidase were carried out under the same conditions described in the references.

[1] = Cytotoxic effect on Human Foreskin fibroblasts (SRB); type: cell-based; details: HFF-1 cells
Description: However, at high concentrations, they can be harmful to cells. For humans, doses less than 100 mg/day are considered safe. […] Therefore, we conducted cytotoxicity assays on Human Foreskin fibroblasts (HFF-1) and an AOT on female Wistar rats to assess their safety.
In a 96-well plate, 7000 cells per well of Human Foreskin fibroblasts (HFF-1) were cultured. […] Untreated cells were also included as a negative control. At the end of the incubation period, the cell contents were precipitated with 50 µL of a 50% aqueous solution of trichloroacetic acid (TCA) at 4 °C for 1 h. The supernatant was discarded and washed 5 times with distilled water. Afterward, the plates were allowed to dry at room temperature. The cell contents were incubated with 100 µL of a 0.04% sulforhodamine B (SRB) solution for 1 h at room temperature. The excess SRB was removed by washing with a 1% aqueous acetic acid solution. […] With the data obtained, the viability of treated cells was calculated by comparing the control without treatment. CC50 value was determined by employing BioStat Pro 5.9.8 software (AnalystSoft Inc., Brandon, FL, USA).

[2] = system: streptozotocin-induced diabetic rats; assay: Serum determinations (insulin, cholesterol) in streptozotocin-induced diabetic rats; type: in vivo, Wistar rat; details: 14 days, FC-114 51.3 mg/kg/day
Description: To obtain serum from each rat under anesthesia, a 10 mL blood sample was taken via cardiac puncture of the exposed heart. After being left at room temperature for 10 min, the blood samples were centrifuged at 2500 rpm (1200× g) for 10 min to obtain the serum. The resulting serum was then frozen at −70 °C until needed. Prior to usage, the serum samples were thawed at room temperature.
The diabetic animals in group 2 (untreated) were given 4% v/v aqueous EtOH solution (vehicle of treatments) in a volume of 6.5 mL/kg body weight. The other groups (3–7) received different treatments for 14 days (weeks 5 to 7). […] All of the treatments were at equimolar doses of PIO and adjusted to the weekly weight of each rat. […] The commercial PIO tablet (30 mg) was crushed in 7.5 mL of vehicle and given to each animal in 4.0 mg/mL of suspension. The FC-114 and FC-122 suspensions were created at 6.2 and 6.0 mg/mL, respectively. The commercial acarbose tablet (50 mg) was crushed in 7.5 mL of the vehicle and given to each animal in a suspension of 6.6 mg/mL. Each suspension was used within 2 days of its preparation, and the administration volume was near to 2.5 mL for each rat.
The blood determinations were carried out using different kits: glucose (1001191, Spinreact, Girona, Spain, 1045), TAG (41032, Spinreact, LIQ557), insulin (RAB09A-1EA-KC, Sigma, 11092020), total cholesterol (41020, Spinreact, LIQ384), and HDL cholesterol (1001095, Spinreact, H166). Mathematically, the c-LDL cholesterol was determined by subtracting the HDL fraction from the total cholesterol.

PTP1B = system: PTP1B; parameters: method as in PMID 34299651; details: cited from earlier work

SMILES	Inhibition type (PTP1B) (PTP1B1–400; Lineweaver-Burk plot)	Ki (PTP1B1–400; substrate pNPP) [µM]	CC50 at 48 h ([1]; HFF-1 human foreskin fibroblasts) [µM]	CC50 at 48 h [1] [µM]	HDL levels [2]	calculated LDL cholesterol [2]	serum insulin levels [2]	serum total cholesterol [2]	Inhibition type (PTP1B) (PTP1B)	Ki (PTP1B) [µM]
Cc1ccc(-n2ncc3c2C(C)(C)[C@@H]2CC[C@]4(C)[C@H](C(=O)C=C5[C@@H]6C[C@@](C)(C(=O)O)CC[C@]6(C)CC[C@]54C)[C@@]2(C)C3)cc1 [FC-122]	uncompetitive	0.44	68.4 ± 1	–	–	–	–	–	–	–
CC1(C)c2[nH]c3ccc(C(F)(F)F)cc3c2C[C@]2(C)[C@H]3C(=O)C=C4[C@@H]5C[C@@](C)(C(=O)O)CC[C@]5(C)CC[C@@]4(C)[C@]3(C)CC[C@@H]12 [FC-114]	–	–	–	59.5 ± 3	without affecting	decreased	dramatically increasing trend	decreased	non-competitive	3.9
